Measurements reported in US20050279350A1, “Methods and apparatus for relieving headaches, rhinitis and other common ailments” (priority 1999, published 2005).
Like-named read-outs stand apart in the source and are kept apart here. Marks after values point to notes of the source that are not given here.

Tests used:
[1] = system: human subjects; experiment: Effective and maximum tolerable nasal and oral carbon dioxide flow rates measured with laboratory apparatus; format: in vivo
Text: (§1) The test device was a hand-held, multi-dose, disposable, dispenser that was approximately 3 to 4 inches long and 6/8 to ⅞ inches in diameter constructed as described above. The device consisted of a plastic twist-top flow regulator mounted on top of a pressurized steel cartridge containing liquid carbon dioxide. The tip of the flow regulator has a nosepiece that is the optimal size and configuration to place against and seal off a nostril for administration of the gas. In a number of subjects, the effective nasal and oral carbon dioxide flow rates, and maximum tolerable nasal and oral flow rates, were measured using a laboratory apparatus. This apparatus consisted of a flow regulator connected via tubing to a flow meter and a large tank of carbon dioxide. These flow data were used, together with the number of seconds gas was administered during therapy, to calculate the estimated dose of gas in milliliters.
Initially, the effective nasal and oral, and maximum tolerable nasal and oral carbon dioxide flow rates were measured in seven subjects using a laboratory apparatus. The flow rate selected that is effective or the maximum tolerable rate varies with the individual. At low flow rates, the presence of the carbon dioxide produces a “tingling” sensation similar to that produced during drinking of carbonated beverages that inadvertently enter the nasal passages e.g., “bubbles up the nose”. This is the effective rate and the tingling is a welcome sensation because it usually coincides with immediate relief of symptoms. Above a certain subjectively determined flow rate the sensation becomes unpleasant, which may be described as a “stinging” or “burning” sensation. At a still higher flow rate (maximum tolerable rate), the stinging sensation becomes intolerable and subjects remove the device from their nostril. Also, subjects are more sensitive to the first does of a series for one attack; subsequent doses give less or no sensation. […] The typical effective rate nasally was 1 to 5 ml/sec and 5 to 10 ml/sec orally.

[2] = system: human subjects with allergies (allergic rhinitis); format: in vivo; details: for 24-hr. Recur Rate / After Effects / Symptom Free, Minutes Post-Treatment / Symptom, Relief, Minutes Post-Treatment: moderate, severe; for Est. Rate / Est. Total Dose / Number of Doses / Single Dose Duration / Total Dose / Total Treatment Time: self-selected effective dose
Text: as §1
Of the total of 15 subjects included in the analysis, 11 used the treatment for 35 headaches and 9 subjects used it for 9 allergy attacks. […] subjects treated both headache and allergy but on different days. The subjects included adults, elderly, and children of both sexes in good general health, having mild, moderate, and severe headaches or having allergies to plant, animal, or airborne allergens. The device was used to treat migraine and tension-type headaches, jaw pain, and allergies (allergic rhinitis, with symptoms that included sinus congestion, sneezing, and itchy throat and eyes). There was no limitation on the duration of symptoms before treatment with the device. Subjects with no prior use of the device and those who have used it (to treat allergy symptoms) previously were included.
Carbon dioxide (100%) was administered nasally by the subject for a few seconds via a nostril to fill the nasal passages while holding their breath, or taking breaths of room air occasionally if the dose was lengthy. The gas exited the other nostril. Such nasal administration is similar to presently marketed nasal inhalers except that the administered gas was not inhaled. […] Subjects took as many doses as they needed for relief. It is important to note that there were no number of doses, duration of dose, time between doses, or gas flow rate specified for the user. Subjects chose their own regimen for symptom relief. Similarly, in medical practice today, gas therapy is a “titrate to effect” therapy without a specified dosage.
For allergy, the rating of the intensity level depends on the extent to which the allergy interferes with the ability to function. […] The same outcome measures as for headache were used for allergy.

[3] = subject five, experience w/device 0
[4] = subject four, experience w/device 0
[5] = subject one, experience w/device >1000
[6] = subject six, experience w/device 0
[7] = subject three, experience w/device >1000
[8] = subject two, experience w/device 0
[9] = subject, experience w/device >10
[10] = Allergy (N = 8), more stringent outcome measure definitions
[11] = Allergy (N = 8), more stringent outcome measure definitions, 1 min post-treatment
[12] = Allergy (N = 8), more stringent outcome measure definitions, 5 min post-treatment
[13] = Allergy (N = 8), more stringent outcome measure definitions, 15 min post-treatment
[14] = Allergy (N = 8), more stringent outcome measure definitions, 30 min post-treatment
[15] = Allergy (N = 9), mild, 1 min post-treatment
[16] = Allergy (N = 9), mild, 5 min post-treatment
[17] = Allergy (N = 9), mild, 15 min post-treatment
[18] = Allergy (N = 9), mild, 30 min post-treatment

Structure (SMILES): O=C=O [carbon dioxide]
- tolerance of high flow rates, oral versus nasal ([1]; seven subjects): better tolerated orally than nasally
- Effective Nasal Rate [1, 3]: 1 to 2 mL/s
- Effective Oral Rate [1, 3]: 5 to 10 mL/s
- Max Tolerable Nasal Rate [1, 3]: 3 mL/s
- Max Tolerable Oral Rate [1, 3]: >10* ml/sec
- Effective Nasal Rate [1, 4]: 2 mL/s
- Effective Oral Rate [1, 4]: 2 mL/s
- Max Tolerable Nasal Rate [1, 4]: 4 mL/s
- Max Tolerable Oral Rate [1, 4]: >10* ml/sec
- Effective Nasal Rate [1, 5]: 4 to 5 mL/s
- Effective Oral Rate [1, 5]: 5 to 10 mL/s
- Max Tolerable Nasal Rate [1, 5]: 10 mL/s
- Max Tolerable Oral Rate [1, 5]: >10* ml/sec
- Effective Nasal Rate [1, 6]: <1 mL/s
- Effective Oral Rate [1, 6]: 5 to 10 mL/s
- Max Tolerable Nasal Rate [1, 6]: 2 mL/s
- Max Tolerable Oral Rate [1, 6]: >10* ml/sec
- Effective Nasal Rate [1, 7]: 4 to 5 mL/s
- Effective Oral Rate [1, 7]: 5 to 10 mL/s
- Max Tolerable Nasal Rate [1, 7]: 10 mL/s
- Max Tolerable Oral Rate [1, 7]: >10* ml/sec
- Effective Nasal Rate [1, 8]: <1 mL/s
- Effective Oral Rate [1, 8]: >10* ml/sec
- Max Tolerable Nasal Rate [1, 8]: <1 mL/s
- Max Tolerable Oral Rate [1, 8]: >10* ml/sec
- Effective Nasal Rate [1, 9]: 4 to 5 mL/s
- Effective Oral Rate [1, 9]: 5 to 10 mL/s
- Max Tolerable Nasal Rate [1, 9]: 10 mL/s
- Max Tolerable Oral Rate [1, 9]: >10* ml/sec
- 24-hr. Recur Rate [2, 10]: 50%
- After Effects [2, 10]: 0%
- Symptom Free, Minutes Post-Treatment [2, 11]: 25%
- Symptom, Relief, Minutes Post-Treatment [2, 11]: 25%
- Symptom Free, Minutes Post-Treatment [2, 12]: 63%
- Symptom, Relief, Minutes Post-Treatment [2, 12]: 75%
- Symptom Free, Minutes Post-Treatment [2, 13]: 88%
- Symptom, Relief, Minutes Post-Treatment [2, 13]: 100%
- Symptom Free, Minutes Post-Treatment [2, 14]: 88%
- Symptom, Relief, Minutes Post-Treatment [2, 14]: 100%
- After Effects ([2]; Allergy (N = 9), mild): 0%
- Symptom Free, Minutes Post-Treatment [2, 15]: 33%
- Symptom, Relief, Minutes Post-Treatment [2, 15]: 33%
- Symptom Free, Minutes Post-Treatment [2, 16]: 67%
- Symptom, Relief, Minutes Post-Treatment [2, 16]: 78%
- Symptom Free, Minutes Post-Treatment [2, 17]: 89%
- Symptom, Relief, Minutes Post-Treatment [2, 17]: 100%
- Symptom Free, Minutes Post-Treatment [2, 18]: 89%
- Symptom, Relief, Minutes Post-Treatment [2, 18]: 100%
- 24-hr. Recur Rate ([2]; Allergy (N = 9), mild, N=4 for this determination): 50%
- Est. Rate ([2]; Allergy-All): 3 mL/s
- Est. Total Dose ([2]; Allergy-All): 133 mL
- Number of Doses ([2]; Allergy-All): 2 #
- Single Dose Duration ([2]; Allergy-All): 13 s
- Total Dose ([2]; Allergy-All): 39 s
- Total Treatment Time ([2]; Allergy-All): 5 min
- Est. Rate ([2]; Allergy-Mild): 5 mL/s
- Est. Total Dose ([2]; Allergy-Mild): 200 mL
- Number of Doses ([2]; Allergy-Mild): 2 #
- Single Dose Duration ([2]; Allergy-Mild): 15 s
- Total Dose ([2]; Allergy-Mild): 40 s
- Total Treatment Time ([2]; Allergy-Mild): >0.7 min
- Est. Rate ([2]; Allergy-Moderate): 2 mL/s
- Est. Total Dose ([2]; Allergy-Moderate): 31 mL
- Number of Doses ([2]; Allergy-Moderate): 2 #
- Single Dose Duration ([2]; Allergy-Moderate): 3 s
- Total Dose ([2]; Allergy-Moderate): 16 s
- Total Treatment Time ([2]; Allergy-Moderate): >0.2 min
- Est. Rate ([2]; Allergy-Severe): 4 mL/s
- Est. Total Dose ([2]; Allergy-Severe): 156 mL
- Number of Doses ([2]; Allergy-Severe): 2 #
- Single Dose Duration ([2]; Allergy-Severe): 17 s
- Total Dose ([2]; Allergy-Severe): 46 s
- Total Treatment Time ([2]; Allergy-Severe): >3.9 min
- efficacy ([2]; allergic rhinitis, occurring in seconds to minutes): 88-100%
- adverse after effects of treatment ([2]; allergy subjects): No subjects reported any adverse after effects
- onset of symptom relief ([2]; allergy, while administering the first dose): immediate onset of symptom relief within seconds
- oral versus nasal administration ([2]; oral administration via pursed lips, allergic inflammation extending into the oral cavity): more effective
- time of recurrence of allergy symptoms post-treatment ([2]; recurrences): ≥ 3 h
